Assay results taken from patent publication US11572590B2, “Methods for evaluating tumor cell spheroids using 3D microfluidic cell culture device” (Dana-Farber Cancer Institute, Inc., priority 2017, dated 2023).
Read-outs that look alike come from different tables or passages of the source.

Columns and labels:
Test in all cases: SelectScreen Kinase Profiling, single point inhibition and IC50 for off-target kinases
Type in all cases: biochemical
off-target kinases [1] = biological target: T1, off-target kinases (Homo sapiens, UniProt Q9Y2U5); conditions: MAP3K2 (MEKK2), LanthaScreen Binding
T1 sequence (Q9Y2U5 1-619): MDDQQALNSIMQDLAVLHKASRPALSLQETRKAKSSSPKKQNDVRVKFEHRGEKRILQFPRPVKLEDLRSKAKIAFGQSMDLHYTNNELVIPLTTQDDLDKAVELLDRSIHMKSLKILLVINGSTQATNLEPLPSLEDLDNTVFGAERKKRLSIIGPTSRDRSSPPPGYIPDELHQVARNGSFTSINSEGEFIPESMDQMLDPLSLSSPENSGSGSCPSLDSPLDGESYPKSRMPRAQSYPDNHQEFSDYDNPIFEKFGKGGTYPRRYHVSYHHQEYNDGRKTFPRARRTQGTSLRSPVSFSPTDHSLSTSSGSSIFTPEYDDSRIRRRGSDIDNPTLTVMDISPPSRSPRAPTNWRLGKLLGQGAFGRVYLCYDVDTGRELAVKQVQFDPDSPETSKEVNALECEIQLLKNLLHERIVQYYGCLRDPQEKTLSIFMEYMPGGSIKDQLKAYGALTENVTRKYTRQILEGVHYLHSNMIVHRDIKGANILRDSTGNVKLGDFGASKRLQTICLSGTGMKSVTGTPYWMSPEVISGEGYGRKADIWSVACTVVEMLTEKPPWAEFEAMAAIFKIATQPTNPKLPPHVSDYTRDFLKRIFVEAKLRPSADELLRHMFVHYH
Procedure: (§1) Biochemical single point inhibition and IC50 concentrations for TBK1, IKKε (IKBKE), and off-target kinases were determined at ThermoFisher Scientific using SelectScreen Kinase Profiling Services (Madison, Wis., USA) (Tables S4A and S4B-1-7). To determine cellular potency, the human colorectal cancer carcinoma cell line HCT116 (ATCC, Manassas, Va.) was maintained in T175 flasks in complete RPMI medium; RPMI 1640 supplemented with 10% FBS, 1× Penicillin-Streptomycin solution and 1×MEM (non-essential amino acids). HCT116 cells were grown to 90-95% confluency in T175 flasks containing complete RPMI medium and transfected in bulk using Lipofectamine 2000 (Invitrogen, Carlsbad, Calif.) with 70 μg of ISG54-luciferase reporter plasmid (Elim Biopharmaceuticals Inc., Hayward, Calif.). The reporter plasmid contains a luciferase gene expression cassette under the transcriptional regulation of the promoter of the human interferon stimulated gene 54 (ISG54). Transfection of the cells was allowed to take place for 6 hours, after which the cells were harvested by treatment with 0.25% trypsin EDTA (Corning Inc., Corning, N.Y.). Trypsinized cells were added to 384-well poly-d-lysine treated black clear bottom tissue culture assay plates (Greiner Bio-One GmbH, Kremsmünster, Austria) at a density of 20,000 cells/well in 80 μL of complete RPMI medium and incubated overnight. After 16-18 hours post-transfection, the assay plates were washed with PBS (Corning Inc., Corning, N.Y.), followed by addition of 80 μL/well of serum-free RPMI 1640 medium containing 1× Penicillin-Streptomycin solution, 1×MEM and 350 nL of DMSO or titrations of Compound 1. Compound 1 titrations were generated by 1.5-fold dilution steps in two overlapping serial dilution series to generate a 40-point compound dose range. After incubation at 37° C. for 1 hour, the cells were stimulated with Poly(I:C) (InvivoGen, San Diego, Calif.) at a final concentration of 15 μg/mL in Optimem media (Life Technologies, Rockville, Md.). The assay plates were incubated for 5 hours at 37° C., followed by addition of One-Glo luciferase firefly reagent (Promega, Madison, Wis.) at 1:1 volume/well and luminescence was measured in an EnVision Multilabel Plate Reader (PerkinElmer, Santa Clara, Calif.). The EC50 values were calculated from the fit of the dose-response curves to a four-parameter equation. All EC50 values represent geometric mean values of a minimum of four determinations.

off-target kinases [2] = biological target: T2, off-target kinases (Homo sapiens, UniProt Q06418); conditions: TYRO3 (RSE), ZLYTE, ATP Km app
T2 sequence (Q06418 41-890): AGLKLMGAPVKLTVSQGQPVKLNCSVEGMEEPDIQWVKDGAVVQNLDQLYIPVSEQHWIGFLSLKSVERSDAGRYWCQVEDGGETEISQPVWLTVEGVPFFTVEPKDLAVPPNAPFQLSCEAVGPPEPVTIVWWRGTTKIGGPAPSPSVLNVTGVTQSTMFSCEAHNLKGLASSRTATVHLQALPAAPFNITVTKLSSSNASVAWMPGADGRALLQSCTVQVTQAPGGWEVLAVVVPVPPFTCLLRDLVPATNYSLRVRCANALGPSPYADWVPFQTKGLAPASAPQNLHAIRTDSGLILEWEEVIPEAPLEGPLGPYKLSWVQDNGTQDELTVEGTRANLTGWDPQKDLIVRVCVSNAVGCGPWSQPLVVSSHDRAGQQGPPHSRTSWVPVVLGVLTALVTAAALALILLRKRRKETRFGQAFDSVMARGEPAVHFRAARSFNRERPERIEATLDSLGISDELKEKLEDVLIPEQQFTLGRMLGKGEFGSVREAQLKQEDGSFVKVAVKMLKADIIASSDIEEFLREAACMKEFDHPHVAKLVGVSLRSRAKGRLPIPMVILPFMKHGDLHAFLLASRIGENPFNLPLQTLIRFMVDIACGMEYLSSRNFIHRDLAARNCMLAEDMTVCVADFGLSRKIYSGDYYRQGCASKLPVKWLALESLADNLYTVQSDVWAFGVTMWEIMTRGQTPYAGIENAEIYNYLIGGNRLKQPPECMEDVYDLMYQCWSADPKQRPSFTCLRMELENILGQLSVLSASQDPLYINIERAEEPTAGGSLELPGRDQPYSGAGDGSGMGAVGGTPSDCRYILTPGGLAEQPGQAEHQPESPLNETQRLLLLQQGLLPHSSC
Procedure: as §1

off-target kinases [3] = biological target: off-target kinases (Homo sapiens, UniProt Q9NYY3); conditions: PLK2, ATP Km app, ZLYTE
Chain of off-target kinases (Homo sapiens, UniProt Q9NYY3) (Q9NYY3 whole entry): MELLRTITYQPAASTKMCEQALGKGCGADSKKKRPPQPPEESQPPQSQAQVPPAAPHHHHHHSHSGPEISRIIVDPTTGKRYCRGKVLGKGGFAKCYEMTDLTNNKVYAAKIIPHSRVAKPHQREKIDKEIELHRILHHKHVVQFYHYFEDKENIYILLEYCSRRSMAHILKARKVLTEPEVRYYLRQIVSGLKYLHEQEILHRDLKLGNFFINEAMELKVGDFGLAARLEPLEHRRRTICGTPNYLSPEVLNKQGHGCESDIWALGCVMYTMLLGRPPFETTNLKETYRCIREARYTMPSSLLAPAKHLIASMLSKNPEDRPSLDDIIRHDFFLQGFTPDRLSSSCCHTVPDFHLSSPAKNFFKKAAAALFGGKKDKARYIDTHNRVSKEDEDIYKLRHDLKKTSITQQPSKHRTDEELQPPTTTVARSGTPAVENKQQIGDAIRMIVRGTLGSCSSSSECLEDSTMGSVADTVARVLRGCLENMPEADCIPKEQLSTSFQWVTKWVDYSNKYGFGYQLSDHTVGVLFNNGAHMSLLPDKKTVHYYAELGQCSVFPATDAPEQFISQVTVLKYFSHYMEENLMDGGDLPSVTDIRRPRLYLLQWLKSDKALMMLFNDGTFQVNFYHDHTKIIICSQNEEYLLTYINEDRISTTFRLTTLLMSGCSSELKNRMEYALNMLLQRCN
Procedure: as §1

N#Cc1cc(-c2ncnc(Nc3ccc(N4CCN(C5COC5)CC4)cc3)n2)ccc1OC1CCOCC1 [Compound 1, 5-(4-((4-(4-(oxetan-3-yl)piperazin-1-yl)phenyl)amino)-1,3,5-triazin-2-yl)-2-((tetrahydro-2H-pyran-4-yl)oxy)benzonitrile]
inhibition (off-target kinases [1]; read-out: % Inhibition 1): 11% | inhibition (off-target kinases [1]; read-out: % Inhibition 2): 9% | inhibition (off-target kinases [1]; read-out: % Inhibition Avg): 10% | inhibition (off-target kinases [2]; read-out: % Inhibition 1): 42% | inhibition (off-target kinases [2]; read-out: % Inhibition 2): 39% | inhibition (off-target kinases [2]; read-out: % Inhibition Avg): 41% | inhibition (off-target kinases [3]; read-out: % Inhibition 1): 60% | inhibition (off-target kinases [3]; read-out: % Inhibition 2): 64% | inhibition (off-target kinases [3]; read-out: % Inhibition Avg): 62%
